Source: ChEMBL document CHEMBL4706522, “Automated design and optimization of multitarget schizophrenia drug candidates by deep learning” (Eur J Med Chem, 2020)
pEC50, pIC50: −log10 of the molar value.

Assays:
[1] = system: Mus musculus; experiment: Antipsychotic activity in ICR mouse assessed as reduction of PCP induced hyperactivity at 3 mg/kg, ig pretreated with compound for 30 mins followed by PCP challenge for 10 mins and measured after 60 mins; assay type: functional; conditions: po, 1.667 h, time 100 min
[2] = molecular target: 5-hydroxytryptamine receptor 2A (Homo sapiens, UniProt P28223); experiment: Antagonist activity at 5-HT2A receptor (unknown origin) assessed as decrease in intracellular calcium flux preincubated with calcium followed by compound challenge and measured after 10 mins by FLIPR method; assay type: functional, cell-based; conditions: for IC50: read-out: pIC50 (converted)
[3] = molecular target: T1, 5-hydroxytryptamine receptor 1A (Homo sapiens, UniProt P08908); experiment: Agonist activity at 5-HT1A receptor (unknown origin) preincubated for 60 mins followed by addition of Eu-cAMP and measured after 60 mins by plate reader method; assay type: functional; conditions: for EC50: read-out: pEC50 (converted)
T1 sequence (P08908 whole entry): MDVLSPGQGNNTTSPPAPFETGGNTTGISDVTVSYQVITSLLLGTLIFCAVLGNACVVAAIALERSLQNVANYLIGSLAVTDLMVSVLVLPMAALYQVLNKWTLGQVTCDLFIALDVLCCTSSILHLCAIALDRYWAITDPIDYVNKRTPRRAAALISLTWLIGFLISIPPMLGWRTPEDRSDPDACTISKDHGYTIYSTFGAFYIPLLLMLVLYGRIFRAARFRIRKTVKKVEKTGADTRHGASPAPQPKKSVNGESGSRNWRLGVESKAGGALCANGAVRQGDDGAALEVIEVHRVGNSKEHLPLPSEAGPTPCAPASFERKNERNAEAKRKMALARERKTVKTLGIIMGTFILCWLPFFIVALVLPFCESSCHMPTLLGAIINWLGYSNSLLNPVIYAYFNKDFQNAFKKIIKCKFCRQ

[4] = molecular target: D(2) dopamine receptor (Homo sapiens, UniProt P14416); experiment: Antagonist activity at D2 receptor (unknown origin) preincubated for 60 mins followed by addition of Eu-cAMP and measured after 60 mins by plate reader method; assay type: functional
[5] = Toxicity in ICR mouse assessed as induction of catalepsy at 1 mg/kg, po; assay type: organism-based; conditions: in vivo
[6] = Toxicity in ICR mouse assessed as induction of sedation by measuring spontaneous locomotor activity at 0.3 to 3 mg/kg, po measured for 30 mins following drug administration; assay type: organism-based; conditions: in vivo, 0.5 h, dose 0.3-3 mg/kg

Sequence of D(2) dopamine receptor (P14416 whole entry): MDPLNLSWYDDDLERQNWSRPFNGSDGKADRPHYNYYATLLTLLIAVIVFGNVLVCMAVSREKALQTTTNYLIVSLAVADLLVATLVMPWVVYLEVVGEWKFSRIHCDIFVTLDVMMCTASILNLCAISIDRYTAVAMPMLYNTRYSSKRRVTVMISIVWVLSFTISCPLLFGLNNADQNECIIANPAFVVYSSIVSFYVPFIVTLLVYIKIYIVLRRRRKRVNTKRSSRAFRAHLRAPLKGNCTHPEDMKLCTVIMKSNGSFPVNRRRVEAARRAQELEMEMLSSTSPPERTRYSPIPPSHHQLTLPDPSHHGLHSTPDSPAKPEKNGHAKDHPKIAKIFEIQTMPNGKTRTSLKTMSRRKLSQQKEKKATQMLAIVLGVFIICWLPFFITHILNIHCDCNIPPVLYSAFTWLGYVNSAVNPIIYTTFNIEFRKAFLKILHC
Sequence of 5-hydroxytryptamine receptor 2A (P28223 whole entry): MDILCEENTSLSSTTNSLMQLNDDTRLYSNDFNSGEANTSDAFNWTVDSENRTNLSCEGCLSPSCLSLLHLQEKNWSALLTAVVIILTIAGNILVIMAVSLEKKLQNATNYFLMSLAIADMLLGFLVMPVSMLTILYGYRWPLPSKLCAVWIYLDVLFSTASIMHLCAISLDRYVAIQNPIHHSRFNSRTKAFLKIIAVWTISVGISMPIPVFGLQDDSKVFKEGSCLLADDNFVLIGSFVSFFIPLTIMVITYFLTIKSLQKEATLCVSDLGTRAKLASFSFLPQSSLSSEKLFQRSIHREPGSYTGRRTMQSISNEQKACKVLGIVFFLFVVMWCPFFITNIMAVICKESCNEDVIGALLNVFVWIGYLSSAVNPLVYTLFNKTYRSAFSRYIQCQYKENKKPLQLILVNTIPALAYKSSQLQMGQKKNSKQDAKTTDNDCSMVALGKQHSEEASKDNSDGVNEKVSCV

| pIC50 ([2]; read-out: IC50) | pEC50 ([3]; read-out: EC50) | IC50 [2] | EC50 [3] | pIC50 [4] | SMILES | inhibition in vivo at 3 mg/kg [1] | Activity [5] | Activity [6] |
| --- | --- | --- | --- | --- | --- | --- | --- | --- |
| 8.79 | 9.29 | – | – | – | O=C1COc2ccccc2N1CCCCN1CCN(c2cccc3sccc23)CC1 | 39% | – | – |
| – | – | 20.9 nM | 2.69 nM | – | COc1ccc2ncc(=O)n(CCCCN3CCN(c4cccc5sccc45)CC3)c2c1 | – | – | – |
| – | – | 2.82 nM | 0.794 nM | 7.17 | Nc1ccc2c(c1)N(CCCCN1CCN(c3cccc4sccc34)CC1)S(=O)(=O)CC2 | 48% | – | – |
| – | – | 18.6 nM | 1.12 nM | 7.70 | O=S1(=O)CCc2ccc(O)cc2N1CCCCN1CCN(c2cccc3sccc23)CC1 | 13% | – | – |
| – | – | 24.5 nM | 4.07 nM | 7.46 | O=C1NCC(=O)N(CCCCN2CCN(c3cccc4sccc34)CC2)c2cc(F)ccc21 | 43% | – | – |
| – | – | 42.7 nM | 11 nM | 6.91 | CN1CC(=O)N(CCCCN2CCN(c3cccc4sccc34)CC2)c2ccccc2C1=O | 15% | – | – |
| – | – | 129 nM | 3.39 nM | – | O=c1[nH]c(=O)n(CCCCN2CCN(c3cccc4sccc34)CC2)c2ccccc12 | – | Non-Toxic | Non-Toxic |
| – | – | – | – | – | O=C1CCc2ccc(OCCCCN3CCN(c4cccc(Cl)c4Cl)CC3)cc2N1 [ARIPIPRAZOLE] | 54% | – | – |
